Data reported in PMC10146186, “Modulation of the Cytotoxic Properties of Pd(II) Complexes Based on Functionalized Carboxamides Featuring Labile Phosphoryl Coordination Sites” (Pharmaceutics, 2023).

Experiments:
[1] = test system: HBL100/Dox doxorubicin-resistant mammary epithelial cells; assay: MTT cytotoxicity assay, HBL100/Dox; assay type: cell-based, human; settings: MTT, 48 h exposure, read-out: IC50 ± SD, HBL100/Dox
Method: (§1) To characterize the antitumor potential of the resulting Pd(II) pincer complexes, their cytotoxicities against a panel of human solid and hematopoietic cancer cell lines, including colorectal carcinoma (HCT116), breast cancer (MCF7), prostate adenocarcinoma (PC3), glioblastoma (U251), ovarian adenocarcinoma (Scov3), chronic myelogenous leukemia (K562) and its resistant subclone (K562/iS9), multiple plasmacytoma (AMO1), and acute lymphoblastic leukemia (H9) cell lineages, were evaluated using the conventional MTT assay. […] For comparison, the inhibitory effects of the compounds explored on noncancerous human embryonic kidney cells HEK293 as well as transformed breast cells HBL100 and their doxorubicin-resistant analogs HBL100/Dox were also investigated under the same conditions.
(§2) The cytotoxic activity of the compounds explored was investigated on human colorectal carcinoma (HCT116), breast cancer (MCF7), prostate adenocarcinoma (PC3), glioblastoma (U251), ovarian adenocarcinoma (Scov3), chronic myelogenous leukemia (K562 and K562/iS9), multiple plasmacytoma (AMO1), and acute lymphoblastic leukemia (H9) cell lines, as well as human embryonic kidney (HEK293) and mammary epithelial (HBL100 and HBL100/Dox) cells used as representatives of pseudonormal cells. All cell lines were obtained from American Type Culture Collection (ATCC). RPMI-1640 and DMEM media were obtained from Gibco. Fetal bovine serum (FBS) was purchased from HyClone. Cells were cultured in RPMI-1640 or DMEM media supplemented with 10% FBS and 50 μg/mL gentamicin in a humidified incubator with 5% CO2 atmosphere. The cell growth inhibitory effects of the compounds were evaluated using the conventional MTT assay (ICN Biomedicals, Eschwege, Germany). Cells were seeded in triplicate at a cell density of 5 × 10^3/well in 96-well plates in 100 µL complete medium and preincubated for 24 h. The tested compounds were initially dissolved in DMSO. Then, the compounds at various concentrations were added to the media. The well plates were incubated for 48 h followed by addition of MTT solution (Sigma, Darmstadt, Germany) (20 μL, 5 mg/mL). The cells were incubated at 37 °C for further 3 h; then the culture medium was removed, and formazan crystals were dissolved in DMSO (70 μL). The absorbance of the resulting solutions was measured on a multi-well plate reader (Multiskan FC, Thermo scientific) at 530 nm to determine the percentage of surviving cells. The reported values of IC50 are the averages of three independent experiments (Table 2 and Table 3). Cisplatin (in the initial form of an infusion concentrate in natural saline solution) from a commercial source was used as the reference.

MCF7 breast cancer cells = assay: MTT cytotoxicity assay, MCF7; assay type: cell-based, human; settings: MCF7, MTT, 48 h exposure; read-out: IC50 ± SD, MCF7
Method: as §1, §2

[2] = UV-vis stability study in DMSO, DMSO–water and DMSO–PBS; assay type: physicochemical; settings: neat DMSO, DMSO–water and DMSO–PBS solutions, over 48 h
Method: The observed dependences correlate well with our previous findings on the lability of the phosphoryl sites in palladocycles 2a,b, 3a,b and can be rationalized in terms of their coordination behavior. […] However, the presence of an additional competitive chloride anion makes complex 2b potentially more susceptible to decoordination of the phosphoryl arm. […] At least the N,N-bidentately bound core remained intact in the mentioned media over a period of 48 h.
The NMR spectra were recorded on Bruker Avance 400 and Avance 500 spectrometers, and the chemical shifts (δ) were referenced internally by the residual (^1H) or deuterated (^13C) solvent signals relative to tetramethylsilane or externally to H3PO4 (^31P) or liquid ammonia (^15N). The ^15N chemical shifts were extracted from the ^1H–^15N HMBC spectra. In all cases, the ^13C{^1H} NMR spectra were registered using the JMODECHO mode; the signals for the C nuclei bearing odd and even numbers of protons had opposite polarities. The NMR peak assignments for ligand 1a and complexes 2a, 3a,b were based on the analysis of ^1H–^1H COSY, ^1H–^13C HSQC, and ^1H–^13C HMBC spectra. The results obtained were used to assign the NMR spectra of the other compounds obtained in this study. For the NMR spectra of the representative compounds, see Figures S1–S9 (1a), S11–S22 (2a), and S24–S35 (3b) in the Supporting Information. […]

[3] = test system: K562/iS9 resistant chronic myelogenous leukemia cells; assay: MTT cytotoxicity assay, K562/iS9; assay type: cell-based, human; settings: 48 h exposure, read-out: IC50 ± SD, K562/iS9
Method: as §1, §2

U251 glioblastoma cells = assay: MTT cytotoxicity assay, U251; assay type: cell-based, human; settings: 48 h exposure, read-out: IC50 ± SD, U251
Method: as §1, §2

[4] = test system: Scov3 ovarian adenocarcinoma cells; assay: MTT cytotoxicity assay, Scov3; assay type: cell-based, human; settings: Scov3, compound concentration 80.0 μM, 48 h
Method: as §1, §2

[5] = test system: HCT116 colorectal carcinoma cells; assay: MTT cytotoxicity assay, HCT116; assay type: cell-based, human; settings: 48 h exposure, read-out: IC50 ± SD, HCT116
Method: as §1, §2

[6] = test system: HBL100 mammary epithelial cells; assay: MTT cytotoxicity assay, HBL100; assay type: cell-based, human; settings: 48 h exposure, read-out: IC50 ± SD, HBL100
Method: as §1, §2

[7] = test system: AMO1 multiple plasmacytoma cells; assay: MTT cytotoxicity assay, AMO1; assay type: cell-based, human; settings: AMO1, MTT, 48 h exposure; read-out: IC50 ± SD, AMO1
Method: as §1, §2

[8] = test system: K562 chronic myelogenous leukemia cells; assay: MTT cytotoxicity assay, K562; assay type: cell-based, human; settings: 48 h exposure, read-out: IC50 ± SD, K562
Method: as §1, §2

[9] = test system: HEK293 embryonic kidney cells; assay: MTT cytotoxicity assay, HEK293; assay type: cell-based, human; settings: HEK293 noncancerous cells, 48 h exposure, read-out: IC50 ± SD, HEK293
Method: as §1, §2

[10] = test system: PC3 prostate adenocarcinoma cells; assay: MTT cytotoxicity assay, PC3; assay type: cell-based, human; settings: 48 h exposure, read-out: IC50 ± SD, PC3
Method: as §1, §2

[11] = test system: H9 acute lymphoblastic leukemia cells; assay: MTT cytotoxicity assay, H9; assay type: cell-based, human; settings: 48 h exposure, read-out: IC50 ± SD, H9
Method: as §1
as §2, with “Then, the compounds at various concentrations were added to the media. The well plates were incubated for 48 h followed by addition of MTT solution (Sigma, Darmstadt, Germany) (20 μL, 5 mg/mL). The cells were incubated at 37 °C for further 3 h; then the culture medium was removed, and formazan crystals were dissolved in DMSO (70 μL).” left out, “The reported values of IC50 are the averages of three independent experiments (Table 2 and Table 3). Cisplatin (in the initial form of an infusion concentrate in natural saline solution) from a commercial source was used as the reference.” left out

stability by UV-vis spectroscopy [2]: high stability
SMILES: O=C(c1ccccn1)[N](CP(=O)(c1ccccc1)c1ccccc1)[Pd][Cl] [complex 3a, [κ^3-O,N,N-(L)Pd(II)Cl]]
IC50 [1]: > 80 µM
IC50 (MCF7 breast cancer cells): 45 ± 5 µM
IC50 [3]: 40 ± 4.5 µM
IC50 (U251 glioblastoma cells): > 80 µM
percentage of live cells [4]: 30% ^5
IC50 [5]: 36 ± 2 µM
IC50 [6]: > 80 µM
IC50 [7]: 32 ± 2 µM
IC50 [8]: 36 ± 4 µM
IC50 [9]: 34 ± 3 µM
IC50 [10]: 26 ± 6 µM
IC50 [11]: 23 ± 1 µM
